Data: ChEMBL document CHEMBL4219239, “Synthesis and biological evaluation of aryl-oxadiazoles as inhibitors of Mycobacterium tuberculosis” (Bioorg Med Chem Lett, 2018)
Values after ≈ are worked out from the molar mass of the structure shown.

Experiments:
[1] = Metabolic stability in rat liver microsomes at 2 uM after 30 mins by LC-MS method; assay type: ADME, microsome; details: 0.5 h
[2] = tested on: Mycobacterium tuberculosis; assay: Antitubercular activity against Mycobacterium tuberculosis H37Rv expressing DsRed using 7H9-Ty-10BT medium after 6 days by 2-fold serial dilution method; assay type: functional; details: 144 h
[3] = Aqueous solubility of the compound at pH 7.4; assay type: physicochemical; details: buffer
[4] = Aqueous solubility of the compound at pH 6; assay type: physicochemical; details: buffer

SMILES | Stability [1] | other results
c1ccc(-c2nnc(CN3CCCc4ccccc43)o2)cc1 | Stable | 
c1csc(-c2nnc(COc3ccc4c(c3)OCO4)o2)c1 | Stable | 
c1csc(-c2nnc(Cc3cccc4ccccc34)o2)c1 | Stable | MIC [2]: 0.4 µM (≈ 0.117 µg/mL)
Fc1cccc(Cl)c1CNCc1nnc(-c2ccco2)o1 | Stable | 
c1csc(-c2nnc(CN3CCc4ccccc43)o2)c1 | Stable | 
CN(CCc1c(F)cccc1Cl)c1nnc(-c2ccco2)o1 | Stable | 
c1ccc(-c2nnc(CN3Cc4ccccc4C3)o2)cc1 | Stable | 
c1coc(-c2nnc(Cc3cccc4ccccc34)o2)c1 | Stable | 
CN(Cc1nnc(-c2ccco2)s1)Cc1c(F)cccc1Cl | Stable | 
CN(Cc1nnc(-c2ccco2)o1)Cc1c(F)cccc1Cl.O=C(O)/C=C\C(=O)O |  | solubility thermodynamic [3]: 717 µg/mL; solubility [4]: 687 µg/mL
c1ccc(C2CCCN2Cc2nnc(-c3cccs3)o2)cc1 (stereo unspecified) | Stable | 
c1coc(-c2nnc(SCc3cccc4ccccc34)o2)c1 | Stable | 
CN(Cc1nnc(-c2ccco2)o1)C(=O)c1c(F)cccc1Cl | Stable | 
c1csc(-c2nnc(CN3Cc4ccccc4C3)o2)c1 | Stable | 
c1ccc(-c2nnc(CN3CCOc4ccccc43)o2)cc1 | Stable | 
c1csc(-c2nnc(Cc3ccc4ccccc4c3)o2)c1 | Stable | 
CN(Cc1ccc(C(F)(F)F)cc1)Cc1nnc(-c2ccccc2)o1 | Stable | 
Fc1ccc(-c2nnc(CN3CCCc4ccccc43)o2)cc1 | Stable | 
FC(F)(F)c1ccc(-c2nnc(CN3CCc4ccccc4C3)o2)cc1 | Stable | 
Fc1cccc(Cl)c1COCc1nnc(-c2ccco2)o1 | Stable | 
CN(Cc1ccccc1)Cc1nnc(-c2cccs2)o1 | Stable | 

SMILES | Stability [1] | other results
c1ccc(-c2nnc(CN3CCc4ccccc4C3)o2)cc1 | Stable | 
c1ccc(-c2nnc(CN3CCCC3c3ccccc3)o2)cc1 (stereo unspecified) | Stable | 
Fc1ccc(-c2nnc(CN3CCOc4ccccc43)o2)cc1 | Stable | 
CN(Cc1nnc(-c2ccco2)o1)Cc1ccccc1Cl | Stable | 
c1csc(-c2nnc(Cc3cccc4c3OCCO4)o2)c1 | Stable | 
CC1CCc2ccccc2N1Cc1nc(-c2ccsc2)no1 (stereo unspecified) | Stable | MIC [2]: 2.2 µM (≈ 0.685 µg/mL)
c1csc(-c2nnc(CN3CCOc4ccccc43)o2)c1 | Stable | 
CN(Cc1ccc(C(F)(F)F)cc1)Cc1nnc(-c2cccs2)o1 | Stable | 
CN(Cc1nnc(-c2ccccc2)o1)Cc1c(F)cccc1Cl | Stable | 
FC(F)(F)c1ccc(-c2nnc(CN3CCCc4ccccc43)o2)cc1 | Stable | 
Fc1ccc(-c2nnc(CN3CCc4ccccc4C3)o2)cc1 | Stable | 
c1csc(-c2nnc(CN3CCc4ccccc4C3)o2)c1 | Stable | 
FC(F)(F)c1ccc(-c2nnc(CN3CCOc4ccccc43)o2)cc1 | Stable | 
c1ccc(-c2nnc(CN3CCc4ccccc43)o2)cc1 | Stable | 
CN(Cc1ccc(F)cc1)Cc1nnc(-c2ccccc2)o1 | Stable | 
CN(Cc1nnc(-c2cccs2)o1)Cc1c(F)cccc1Cl | Stable | 
CN(Cc1ccccc1)Cc1nnc(-c2ccco2)o1 | Stable | 
CN(Cc1nnc(-c2ccco2)o1)CC1CCCCC1 | Stable | 
c1ccc(Cc2nnc(-c3cccs3)o2)cc1 | Stable | 
CN(Cc1nnc(-c2ccco2)o1)Cc1c(F)cccc1Cl | Stable | MIC [2]: 0.8 µM (≈ 0.257 µg/mL)
c1csc(-c2nnc(CN3CCCc4ccccc43)o2)c1 | Stable | 
